One assay deals with EA.hy 926. The experiment in a line: Cytotoxicity in human EAhy926 cells assessed as reduction in cell viability incubated for 72 hrs by MTT assay. The class given is cell-based. Conditions: EA.hy 926, 72 h. A general note: Tetrazolium dyes change colour on reduction, which living cells bring about.
The subject of a further assay is MDCK. As to the kind of experiment: Cytotoxicity in canine MDCK cells assessed as reduction in cell viability incubated for 72 hrs by MTT assay. It counts as cell-based. Particulars: Canis lupus familiaris.
For the next assay, the system named is HeLa. As to the kind of experiment: Cytotoxicity in human HeLa cells assessed as reduction in cell viability incubated for 72 hrs by MTT assay. The class given is functional, cell-based.
Another assay relates to H9c2. The experiment in a line: Cytotoxicity in rat H9c2 cells assessed as reduction in cell viability incubated for 72 hrs by MTT assay. The class given is cell-based. Particulars: H9c2, 72 h.
The next assay concerns HT-29. The experiment in a line: Cytotoxicity in human HT-29 cells assessed as reduction in cell viability incubated for 72 hrs by MTT assay. It counts as functional, cell-based. Particulars: HT-29, 72 h.
For the next assay, the system named is HepG2. The experiment in a line: Cytotoxicity in human HepG2 cells assessed as reduction in cell viability incubated for 72 hrs by MTT assay. The class given is functional, cell-based. Particulars: HepG2, 72 h.
Another assay has as its system MDA-MB-231. The experiment in a line: Cytotoxicity in human MDA-MB-231 cells assessed as reduction in cell viability incubated for 48 hrs by SRB assay. Particulars: MDA-MB-231, 48 h. The class given is functional.
Assay [1] has as its system MCF7. As to the kind of experiment: Cytotoxicity in human MCF7 cells assessed as reduction in cell viability incubated for 48 hrs by SRB assay. Particulars: MCF7, 48 h. The class given is functional, cell-based. For orientation: The SRB assay estimates cell density from bound dye.
Assay [2] has as its system MCF7. The experiment in a line: Cytotoxicity in human MCF7 cells assessed as reduction in cell viability incubated for 24 hrs by MTT assay. The class given is functional, cell-based. Particulars: MCF7, 24 h.
A further assay concerns TERT-RPE1. The experiment in a line: Cytotoxicity in human hTERT-RPE1 cells assessed as reduction in cell viability incubated for 24 hrs by MTT assay. It counts as functional, cell-based. Particulars: RPE-1, 24 h.

Consider 10 molecules from ChEMBL document CHEMBL4270495, “Oleanane-, ursane-, and quinone methide friedelane-type triterpenoid derivatives: Recent advances in cancer treatment” (Eur J Med Chem, 2017).

Structures are written as SMILES. A value given as a limit tells only on which side of the number the result lay.

As usually defined, the IC50 is the concentration that gives 50% inhibition. Turning to `COc1cc(/C=C/C(=O)O[C@H]2CC[C@]3(C)[C@H]4C(=O)C=C5[C@H]6C[C@@](C)(C(=O)O)CC[C@]6(C)CC[C@@]5(C)[C@]4(C)CC[C@H]3C2(C)C)cc(OC)c1OC`, the IC50 with EA.hy 926 was found to be 30.8 µM; in the assay on MDCK, 27.7 µM; with HeLa, 30.7 µM; in the assay on H9c2, 47.4 µM; in the assay on HT-29, 25.5 µM; with HepG2, 21.9 µM.
As for `COc1ccc(OC)c(/C=C/C(=O)O[C@H]2CC[C@]3(C)[C@H]4C(=O)C=C5[C@H]6C[C@@](C)(C(=O)O)CC[C@]6(C)CC[C@@]5(C)[C@]4(C)CC[C@H]3C2(C)C)c1`, the IC50 was 45.1 µM in the assay with EA.hy 926; > 50 µM in the assay on MDCK; 28 µM with HeLa; > 50 µM in the assay with H9c2; 26.4 µM in the assay on HT-29; 25.4 µM in the assay on HepG2.
The GI50 is the concentration at which growth is held to half of that of the control. Consider `C[C@H]1[C@H](C)CC[C@]2(C(=O)OCCCn3cc(COC(=O)[C@]45CC[C@@H](C)[C@H](C)[C@@H]4C4=CC[C@@H]6[C@@]7(C)CC[C@H](O)[C@](C)(CO)[C@@H]7CC[C@]6(C)[C@]4(C)CC5)cn3)CC[C@]3(C)C(=CC[C@@H]4[C@@]5(C)CC[C@H](O)C(C)(C)[C@@H]5CC[C@]43C)[C@H]12`, for which the GI50 with MDA-MB-231 came out at 4.5 µM; in the assay on MCF7 [1] it was 12.1 µM.
Consider `COc1cccc(/C=C/C(=O)O[C@H]2CC[C@]3(C)[C@H]4C(=O)C=C5[C@H]6C[C@@](C)(C(=O)O)CC[C@]6(C)CC[C@@]5(C)[C@]4(C)CC[C@H]3C2(C)C)c1OC`, for which the IC50 in the assay with EA.hy 926 is 25 µM; with MDCK, 33.7 µM; in the assay on HeLa it was 22.5 µM; with H9c2, > 50 µM; in the assay with HT-29 it was 24.4 µM; in the assay on HepG2, 24.4 µM.
For `COc1ccc(/C=C/C(=O)O[C@H]2CC[C@]3(C)[C@H]4C(=O)C=C5[C@H]6C[C@@](C)(C(=O)O)CC[C@]6(C)CC[C@@]5(C)[C@]4(C)CC[C@H]3C2(C)C)cc1`, the IC50 in the assay with EA.hy 926 was > 50 µM; in the assay on MDCK, 21.7 µM; in the assay with HeLa, 23.4 µM; in the assay with H9c2, 36.1 µM; in the assay with HT-29, 33 µM; in the assay on HepG2 it was 31.2 µM.
Consider `C=C(C)[C@@H]1CC[C@]2(C(=O)OCc3cnn(CCCOC(=O)[C@]45CC[C@@H](C)[C@H](C)[C@H]4C4=CC[C@@H]6[C@@]7(C)CC[C@H](O)C(C)(C)[C@@H]7CC[C@@]6(C)[C@]4(C)CC5)c3)CC[C@]3(C)[C@H](CC[C@@H]4[C@@]5(C)CC[C@H](O)C(C)(C)[C@@H]5CC[C@]43C)[C@@H]12`, for which the GI50 was 1.4 µM in the assay with MDA-MB-231 and 14.4 µM with MCF7 [1].
For `COc1ccc(/C=C/C(=O)O[C@H]2CC[C@]3(C)[C@H]4C(=O)C=C5[C@H]6C[C@@](C)(C(=O)O)CC[C@]6(C)CC[C@@]5(C)[C@]4(C)CC[C@H]3C2(C)C)c(OC)c1OC`, the IC50 in the assay on EA.hy 926 was 27.7 µM; in the assay with MDCK, 31.8 µM; in the assay with HeLa it was 8.54 µM; in the assay on H9c2 it was > 50 µM; with HT-29 it was 15 µM; with HepG2, 21.5 µM.
As to `C=C(C)[C@@H]1CC[C@]2(C(=O)O)CC[C@]3(C)[C@H](CC[C@@H]4[C@@]5(C)CC[C@H](O)C(C)(C)[C@@H]5CC[C@]43C)[C@@H]12` [BETULINIC ACID], the GI50 was found to be 22.9 µM in the assay on MDA-MB-231 and 11.3 µM with MCF7 [1].
Take `C[C@H]1[C@H](C)CC[C@]2(C(=O)O)CC[C@]3(C)C(=CC[C@@H]4[C@@]5(C)C[C@@H](O)[C@H](O)C(C)(C)[C@@H]5CC[C@]43C)[C@H]12` [COROSOLIC ACID]: the results for the GI50 in the assay on MDA-MB-231 and with MCF7 [1] were 15.3 µM and 18.5 µM, respectively.
For the molecule `COc1cccc2c1C(=O)c1c(O)c3c(c(O)c1C2=O)C[C@@](O)(C(=O)CO)C[C@@H]3O[C@H]1C[C@H](N)[C@H](O)[C@H](C)O1` [DOXORUBICIN], the IC50 in the assay on MCF7 [2] was 0.49 µM; in the assay with TERT-RPE1, 2.76 µM. Also, the figures for the GI50 in the assay on MDA-MB-231 and in the assay on MCF7 [1] were 4.1 µM and 5.7 µM, respectively.
